Reference: patent publication US20260285834A1, “SUBSTITUTED PYRIDINE DERIVATIVES AS SARM1 INHIBITORS” (Nura Bio, Inc., priority 2022, published 2026)
pIC50: −log10 of the molar value.

Molecular target: T1, human SARM1(50-724) (Homo sapiens, UniProt Q6SZW1)
T1 construct: 40 nM human SARM1(50-724)
T1 sequence (Q6SZW1 50-724): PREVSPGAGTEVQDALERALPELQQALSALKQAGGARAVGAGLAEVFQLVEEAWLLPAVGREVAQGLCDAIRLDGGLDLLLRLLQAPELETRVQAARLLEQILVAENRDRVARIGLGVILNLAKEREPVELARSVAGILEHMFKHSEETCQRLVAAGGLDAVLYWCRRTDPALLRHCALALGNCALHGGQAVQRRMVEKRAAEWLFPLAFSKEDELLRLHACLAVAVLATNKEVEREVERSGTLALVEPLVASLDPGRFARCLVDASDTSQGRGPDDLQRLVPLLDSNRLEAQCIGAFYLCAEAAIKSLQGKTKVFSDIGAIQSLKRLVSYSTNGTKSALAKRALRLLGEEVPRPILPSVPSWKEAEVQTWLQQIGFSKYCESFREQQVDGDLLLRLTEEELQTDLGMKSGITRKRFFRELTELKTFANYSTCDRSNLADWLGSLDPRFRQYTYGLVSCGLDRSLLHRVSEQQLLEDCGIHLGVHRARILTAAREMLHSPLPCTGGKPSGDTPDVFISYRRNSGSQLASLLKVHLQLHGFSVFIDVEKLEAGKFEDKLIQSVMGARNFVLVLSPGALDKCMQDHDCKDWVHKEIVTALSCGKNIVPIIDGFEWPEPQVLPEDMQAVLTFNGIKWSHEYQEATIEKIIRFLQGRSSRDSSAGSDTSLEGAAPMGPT
Test: SARM1 biological assay: HPLC measurement of NAD and NAM peak areas
Format: biochemical
Protocol: Each reaction was run at a volume of 20 μL containing 50 μM compound (dissolved in DMSO; final concentration of DMSO is 1% v/v), 40 nM human SARM1(50-724), 0.3 mM NMN, 20 μM NAD, 1 mM TCEP, 25 mM HEPES pH 7.4, 10 mM KCl and 10 mM MgCl2. The reaction was incubated at room temperature for 60 minutes and quenched with 20 μL of 0.4% formic acid. The samples were run on Agilent HPLC 1260 Infinity II with Synergi 2.5 μM Fusion-RP 100 Å (100×3.0 mm) LC column from Phenomenex. Total run time for each sample was 4 minutes. The run was isocratic with 1.5% methanol in 40 mM ammonium acetate pH 6.0. Samples were run at a flow rate of 0.8 mL/min at 55° C. Peak areas of NAD and NAM were determined using OpenLAB CDS (Chem Station edition) software. For dose-response, the compound was diluted serially 1:3 in DMSO and added to the reaction starting at a final compound concentration of 100 μM in 1% DMSO.

| SMILES | pIC50 |
| --- | --- |
| ClC1(Cl)CC(c2nc(Cc3ccncc3)c[nH]2)C1 [Example 19A, 4-((2-(3,3-Dichlorocyclobutyl)-1H-imidazol-4-yl)methyl)pyridine] | > 6.00 |
| FC1(F)CC(c2nc(Cc3ccncc3)co2)C1 [Example 15B, 2-(3,3-Difluorocyclobutyl)-4-(pyridin-4-ylmethyl)oxazole] | 4.00 to 5.00 |
| FC1(F)CCN(c2nc(Cc3ccncc3)c[nH]2)C1 [Example 3] | 5.00 to 6.00 |
| ClC1(Cl)C[C@@H]1c1nc(Cc2ccncc2)c[nH]1 (single isomer, unassigned) [Example 33A] | > 6.00 |
| FC1(F)CN(Cc2nc(Cc3ccncc3)c[nH]2)C1 [Example 7] | 5.00 to 6.00 |
| FC(F)(F)C1(c2nc(Cc3ccncc3)c[nH]2)CC1 [Example 16] | 5.00 to 6.00 |
| Fc1cnccc1Cc1c[nH]c(C2CCC(F)(F)C2)n1 (centres unmarked) [Example 18A, 4-((2-(3,3-Difluorocyclopentyl)-1H-imidazol-4-yl)methyl)-3-fluoropyridine] | 5.00 to 6.00 |
| FC(F)(F)[C@H]1CCO[C@H]1c1nc(Cc2ccncc2)c[nH]1 (relative stereo) [Example 27, (cis)-4-((2-(3-(trifluoromethyl)tetrahydrofuran-2-yl)-1H-imidazol-4-yl)methyl)pyridine] | 4.00 to 5.00 |
| FC1(F)CN(c2nc(Cc3ccncc3)c[nH]2)C1 [Example 2, 4-((2-(3,3-Difluoroazetidin-1-yl)-1H-imidazol-4-yl)methyl)pyridine] | 5.00 to 6.00 |
| Fc1cnccc1Cc1c[nH]c(C2CC2(F)F)n1 (centres unmarked) [Example 14, 4-((2-(2,2-Difluorocyclopropyl)-1H-imidazol-4-yl)methyl)-3-fluoropyridine] | > 6.00 |
| OC1(C(F)(F)F)CC(c2nc(Cc3ccncc3)c[nH]2)C1 (centres unmarked) [Example 8, 3-(4-(Pyridin-4-ylmethyl)-1H-imidazol-2-yl)-1-(trifluoromethyl)cyclobutan-1-ol] | 5.00 to 6.00 |
